Assay results as given in ChEMBL document CHEMBL1131686, “Synthesis and biological activities of topoisomerase I inhibitors, 6-N-amino analogues of NB-506” (Bioorg Med Chem Lett, 1999).

Assays:
[1] = target: Epidermal growth factor receptor (Homo sapiens, UniProt P00533); assay: In vitro activity against Epidermal growth factor receptor (using poly(Glu4Tyr1) as a substrate)
MKN-45 [2] = assay: In vitro cytotoxicity (CTX) against human stomach cancer cells (MKN-45) using sulforhodamine B dye-staining method; assay type: functional, cell-based
P388 [3] = assay: Effect on the formation of protein-DNA complex in P388 cells K+/SDS method; assay type: functional, Mus musculus
P388 [4] = assay: In vitro cytotoxicity (CTX) against murine leukemia cells (P388) using colorimetric tetrazolium-formazan method; assay type: functional, cell-based; conditions: Mus musculus
[5] = target: Protein kinase C alpha type (Homo sapiens, UniProt P17252); assay: In vitro activity evaluated against protein kinase C (using histone II-As as a substrate)
DNA topoisomerase 1 = target: T1, DNA topoisomerase 1 (Homo sapiens, UniProt P11387); assay: In vitro activity against topoisomerase-1 mediated cleavage of supercoiled pBR322 plasmid DNA; assay type: functional
T1 sequence (P11387 whole entry): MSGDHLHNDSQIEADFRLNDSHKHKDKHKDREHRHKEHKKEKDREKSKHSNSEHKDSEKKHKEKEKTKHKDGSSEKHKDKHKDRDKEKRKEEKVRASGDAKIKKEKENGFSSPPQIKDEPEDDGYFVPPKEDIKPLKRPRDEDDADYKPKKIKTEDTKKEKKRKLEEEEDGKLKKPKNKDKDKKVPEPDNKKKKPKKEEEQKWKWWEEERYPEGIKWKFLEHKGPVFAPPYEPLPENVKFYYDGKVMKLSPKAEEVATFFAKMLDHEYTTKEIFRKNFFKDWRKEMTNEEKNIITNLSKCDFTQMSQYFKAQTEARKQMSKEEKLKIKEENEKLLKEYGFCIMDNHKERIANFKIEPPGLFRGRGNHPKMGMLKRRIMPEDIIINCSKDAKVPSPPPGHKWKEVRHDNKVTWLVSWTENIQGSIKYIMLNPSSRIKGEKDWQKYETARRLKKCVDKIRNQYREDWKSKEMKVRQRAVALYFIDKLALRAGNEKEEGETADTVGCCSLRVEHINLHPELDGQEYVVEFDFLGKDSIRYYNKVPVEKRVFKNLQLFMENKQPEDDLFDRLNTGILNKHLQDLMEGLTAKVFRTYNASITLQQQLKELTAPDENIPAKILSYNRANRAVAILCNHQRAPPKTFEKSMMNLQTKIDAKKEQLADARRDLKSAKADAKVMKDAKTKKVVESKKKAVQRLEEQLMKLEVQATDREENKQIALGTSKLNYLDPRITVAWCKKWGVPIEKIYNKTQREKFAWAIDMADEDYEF

DNA topoisomerase II = DNA topoisomerase II (Homo sapiens, UniProt P11388+Q02880); assay: In vitro activity against topoisomerase-2 mediated cleavage of supercoiled pBR322 plasmid DNA; assay type: functional
MKN-45 [6] = assay: Cytotoxicity against human stomach cancer cells (MKN-45) after intravenous administration (5 times/week for 2 weeks after tumor grew to 0.2 cme3 or larger); assay type: functional, cell-based; conditions: MKN-45, 336 h
Mus musculus = assay: Cytotoxicity against human stomach cancer cells (MKN-45) implanted subcutaneously into a side flank of nude mice; assay type: functional, Cancer cell lines
[7] = Lethal dose after intravenous administration (5 times/week for 2 weeks after tumor grew to 0.2 cme3 or larger) in mice; assay type: toxicity; conditions: mouse, in vivo, 336 h
[8] = Ratio of LD10 to that of GID75 was determined; expressed as safety margin; assay type: functional

Sequence of Epidermal growth factor receptor (P00533 whole entry): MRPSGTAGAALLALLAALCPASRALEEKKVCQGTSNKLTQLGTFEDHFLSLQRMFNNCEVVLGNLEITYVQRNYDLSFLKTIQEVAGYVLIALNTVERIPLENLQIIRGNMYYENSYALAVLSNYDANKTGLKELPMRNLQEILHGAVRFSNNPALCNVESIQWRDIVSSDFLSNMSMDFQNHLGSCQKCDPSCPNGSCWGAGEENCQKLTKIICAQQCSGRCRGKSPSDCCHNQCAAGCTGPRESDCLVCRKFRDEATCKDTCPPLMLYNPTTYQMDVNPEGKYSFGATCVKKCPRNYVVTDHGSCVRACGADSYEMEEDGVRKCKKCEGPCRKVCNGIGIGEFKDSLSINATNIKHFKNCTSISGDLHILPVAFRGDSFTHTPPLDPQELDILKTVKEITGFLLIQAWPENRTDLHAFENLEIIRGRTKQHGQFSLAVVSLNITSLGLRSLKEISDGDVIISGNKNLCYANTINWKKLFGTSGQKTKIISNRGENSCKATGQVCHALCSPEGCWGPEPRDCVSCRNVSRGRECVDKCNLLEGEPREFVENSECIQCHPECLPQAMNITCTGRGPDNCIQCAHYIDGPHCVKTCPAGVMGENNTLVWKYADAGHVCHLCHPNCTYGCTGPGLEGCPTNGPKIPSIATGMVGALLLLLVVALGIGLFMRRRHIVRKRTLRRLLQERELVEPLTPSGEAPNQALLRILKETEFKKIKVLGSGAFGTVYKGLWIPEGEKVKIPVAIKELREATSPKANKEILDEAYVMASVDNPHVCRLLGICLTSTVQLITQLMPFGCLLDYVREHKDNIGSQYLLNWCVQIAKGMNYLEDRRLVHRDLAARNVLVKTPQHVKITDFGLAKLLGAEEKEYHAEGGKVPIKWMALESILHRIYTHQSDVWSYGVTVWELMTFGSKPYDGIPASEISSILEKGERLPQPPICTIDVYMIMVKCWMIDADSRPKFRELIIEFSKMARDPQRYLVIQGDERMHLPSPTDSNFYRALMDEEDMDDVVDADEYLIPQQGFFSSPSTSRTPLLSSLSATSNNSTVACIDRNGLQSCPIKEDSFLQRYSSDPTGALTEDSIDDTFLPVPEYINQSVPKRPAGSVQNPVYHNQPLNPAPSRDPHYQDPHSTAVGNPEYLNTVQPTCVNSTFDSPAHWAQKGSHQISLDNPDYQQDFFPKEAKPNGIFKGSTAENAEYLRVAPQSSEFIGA

IC50 [1] [nM]	IC50 [5] [nM]	EC50 (DNA topoisomerase 1) [nM]	EC50 (DNA topoisomerase II) [nM]	Compound	IC50 (MKN-45 [2]) [nM]	EC200 (P388 [3]) [µM]	IC50 (P388 [4]) [nM]	IC50 (MKN-45 [6]) [nM]	GID75 (Mus musculus) [mg/me2]	LD10 [7] [mg/me2]	Activity [8] [Ratio]
> 200000	> 200000	580	> 50000	CS(=O)(=O)NN1C(=O)c2c(c3c4cccc(O)c4n(C4OC(CO)C(O)C(O)C4O)c3c3[nH]c4c(O)cccc4c23)C1=O (stereo not given)	270	>10	60	–	–	–	–
> 200000	12000	270	> 50000	Cc1ccc(S(=O)(=O)NN2C(=O)c3c(c4c5cccc(O)c5n(C5OC(CO)C(O)C(O)C5O)c4c4[nH]c5c(O)cccc5c34)C2=O)cc1 (stereo not given)	–	>10	–	–	–	–	–
> 200000	36000	480	> 50000	CCC(=O)NN1C(=O)c2c(c3c4cccc(O)c4n(C4OC(CO)C(O)C(O)C4O)c3c3[nH]c4c(O)cccc4c23)C1=O (stereo not given)	190	6	45	–	–	–	–
> 200000	41000	90	> 50000	O=C(NN1C(=O)c2c(c3c4cccc(O)c4n(C4OC(CO)C(O)C(O)C4O)c3c3[nH]c4c(O)cccc4c23)C1=O)c1ccccn1 (stereo not given)	2500	>10	470	–	–	–	–
> 200000	13000	300	> 50000	O=C1c2c(c3c4cccc(O)c4n(C4OC(CO)C(O)C(O)C4O)c3c3[nH]c4c(O)cccc4c23)C(=O)N1NCc1cccc(O)c1 (stereo not given)	12	0.26	7	–	–	–	–
90000	3800	3000	> 50000	O=C1NC(=O)c2c1c1c3cccc(O)c3[nH]c1c1c2c2cccc(O)c2n1C1OC(CO)C(O)C(O)C1O (stereo not given)	540	2	44	–	–	–	–
95000	6800	250	–	O=C(Nc1ccccc1)NN1C(=O)c2c(c3c4cccc(O)c4n(C4OC(CO)C(O)C(O)C4O)c3c3[nH]c4c(O)cccc4c23)C1=O (stereo not given)	250	>10	250	–	–	–	–
> 200000	> 200000	360	> 50000	NC(=O)NN1C(=O)c2c(c3c4cccc(O)c4n(C4OC(CO)C(O)C(O)C4O)c3c3[nH]c4c(O)cccc4c23)C1=O (stereo not given)	270	2.8	35	–	–	–	–
> 200000	65000	550	> 50000	N#CCC(=O)NN1C(=O)c2c(c3c4cccc(O)c4n(C4OC(CO)C(O)C(O)C4O)c3c3[nH]c4c(O)cccc4c23)C1=O (stereo not given)	1900	20	490	–	–	–	–
> 200000	130000	1000	> 50000	CC(=O)NN1C(=O)c2c(c3c4cccc(O)c4n(C4OC(CO)C(O)C(O)C4O)c3c3[nH]c4c(O)cccc4c23)C1=O (stereo not given)	260	2	150	–	–	–	–
29000	40000	> 3000	> 50000	O=C1NC(=O)c2c1c1c3cccc(O)c3[nH]c1c1[nH]c3c(O)cccc3c21	–	3	2000	–	–	–	–
> 200000	> 200000	170	–	CN(C)CC(=O)NN1C(=O)c2c(c3c4cccc(O)c4n(C4OC(CO)C(O)C(O)C4O)c3c3[nH]c4c(O)cccc4c23)C1=O (stereo not given)	460	>10	260	–	–	–	–

Second part, the compound before the results:

Compound	IC50 [1] [nM]	IC50 [5] [nM]	EC50 (DNA topoisomerase 1) [nM]	EC50 (DNA topoisomerase II) [nM]	IC50 (MKN-45 [2]) [nM]	EC200 (P388 [3]) [µM]	IC50 (P388 [4]) [nM]	IC50 (MKN-45 [6]) [nM]	GID75 (Mus musculus) [mg/me2]	LD10 [7] [mg/me2]	Activity [8] [Ratio]
CN(C)N1C(=O)c2c(c3c4cccc(O)c4n(C4OC(CO)C(O)C(O)C4O)c3c3[nH]c4c(O)cccc4c23)C1=O (stereo not given)	> 200000	59000	> 10000	> 50000	> 10000	>10	1600	–	–	–	–
O=C(CO)NN1C(=O)c2c(c3c4cccc(O)c4n(C4OC(CO)C(O)C(O)C4O)c3c3[nH]c4c(O)cccc4c23)C1=O (stereo not given)	> 200000	> 200000	2800	> 50000	660	5	240	660	1200	> 1500	> 1.3
N#CCCNN1C(=O)c2c(c3c4cccc(O)c4n(C4OC(CO)C(O)C(O)C4O)c3c3[nH]c4c(O)cccc4c23)C1=O (stereo not given)	> 200000	> 200000	70	> 50000	20	0.9	6	20	200	640	3.2
O=C(NN1C(=O)c2c(c3c4cccc(O)c4n(C4OC(CO)C(O)C(O)C4O)c3c3[nH]c4c(O)cccc4c23)C1=O)c1ccccc1 (stereo not given)	> 200000	35000	52	–	48	10	12	–	–	–	–
O=C(O)CNN1C(=O)c2c(c3c4cccc(O)c4n(C4OC(CO)C(O)C(O)C4O)c3c3[nH]c4c(O)cccc4c23)C1=O (stereo not given)	> 200000	110000	9500	> 50000	2900	>10	800	–	–	–	–
CNN1C(=O)c2c(c3c4cccc(O)c4n(C4OC(CO)C(O)C(O)C4O)c3c3[nH]c4c(O)cccc4c23)C1=O (stereo not given)	100000	55000	350	> 50000	130	2.5	75	–	–	–	–
O=C1c2c(c3c4cccc(O)c4n(C4OC(CO)C(O)C(O)C4O)c3c3[nH]c4c(O)cccc4c23)C(=O)N1NCCO (stereo not given)	> 200000	> 200000	430	> 50000	3	0.3	6	3	270	560	2.1
CCCNN1C(=O)c2c(c3c4cccc(O)c4n(C4OC(CO)C(O)C(O)C4O)c3c3[nH]c4c(O)cccc4c23)C1=O (stereo not given)	59000	65000	1200	> 50000	210	6.3	55	–	–	–	–
O=C1c2c(c3c4cccc(O)c4n(C4OC(CO)C(O)C(O)C4O)c3c3[nH]c4c(O)cccc4c23)C(=O)N1NCC(O)CO (stereo not given)	180000	> 200000	1000	–	79	0.7	29	79	290	330	1.1
O=C(O)c1ccc(NN2C(=O)c3c(c4c5cccc(O)c5n(C5OC(CO)C(O)C(O)C5O)c4c4[nH]c5c(O)cccc5c34)C2=O)cc1 (stereo not given)	90000	23000	160	> 50000	> 10000	>50	6500	–	–	–	–
O=C1c2c(c3c4cccc(O)c4n(C4OC(CO)C(O)C(O)C4O)c3c3[nH]c4c(O)cccc4c23)C(=O)N1NC(CO)CO (stereo not given)	–	> 200000	580	> 50000	130	0.45	17	130	78	390	5
NN1C(=O)c2c(c3c4cccc(O)c4n(C4OC(CO)C(O)C(O)C4O)c3c3[nH]c4c(O)cccc4c23)C1=O (stereo not given)	> 200000	> 200000	270	> 50000	130	0.5	40	–	–	–	–
CCNN1C(=O)c2c(c3c4cccc(O)c4n(C4OC(CO)C(O)C(O)C4O)c3c3[nH]c4c(O)cccc4c23)C1=O (stereo not given)	> 200000	> 200000	3500	> 50000	59	1.2	18	59	>1500	> 1500	–
